According to publication PMC8745710, “Biological Evaluation and Molecular Docking Studies of Novel 1,3,4-Oxadiazole Derivatives of 4,6-Dimethyl-2-sulfanylpyridine-3-carboxamide” (International Journal of Molecular Sciences, 2022):

Tests used:
[1] = test system: VERO (kidney epithelial cells); experiment: MTT assay, VERO; type: cell-based; details: Chlorocebus sabaeus, Vero, 48 h incubation, read-out: IC50 [µM] ± SD VERO
Text: (§1) The MTT (3-[4,5-dimethylthiazol-2-yl]-2,5-diphenyl tetrazolium bromide) assay was used to determine the cytotoxicity of tested compounds towards different cell lines: normal human dermal fibroblasts (NHDF), kidney epithelial cells (VERO), fibroblasts from Chinese hamster lung (V79) and four human cancer cells: A549 (pulmonary basal cell alveolar adenocarcinoma), MCF-7 (breast adenocarcinoma), LoVo (colon adenocarcinoma), and its drug resistant subline LoVo/Dx. The cell lines used in this study express COX-1 and COX-2. The LoVo line expressed COX-1, the LoVo/Dx subline express both COX-1 and COX-2 [61].
(§2) Each cell line was grown in the culture media recommended by supplier. Before the test they were detached with trypsin/EDTA solution, then to neutralize the effect of Trypsin/EDTA solution, FBS containing medium was used. After centrifugation the cells were stained with 0.4% solution of trypan blue, counted and inspected for viability using microscope. In the end, cells were inserted into 96-well culture plates and incubated in CO2 incubator (37 °C, 24 h). The number of cells was 2 × 10^3 cells per well. The tested compounds with different concentrations (5, 10, 20, 50, 100 µM) were dissolved in DMSO and then added to the cells (the final DMSO concentration was 0.1%). The cultures were incubated for another 48 h. After that time the cells were collected to be used in tests.
(§3) MTT assay was used to find out how tested compounds influence the metabolic activity of investigated cell lines. The cells were incubated with tested compounds. After removing of supernatant, 1 mg/mL of MTT solution in MEM was added to the plate (to each well) and then the plates were incubated at 37 °C for 2 h. The medium was removed again, and formazan crystals were dissolved in isopropanol. A Varioscan LUX microplate reader (Thermo Fisher Scientific, Waltham, MA, USA) was used to measure absorbance at 570 nm.

[2] = test system: A549 (pulmonary basal cell alveolar adenocarcinoma); experiment: MTT assay, A549; type: cell-based; details: Homo sapiens, 48 h incubation, read-out: IC50 [µM] ± SD A549
Text: as §1, §2, §3

IC50 [2] [µM]	SMILES	IC50 [1] [µM]
3.52 ± 0.19	Cc1cc(C)c(C(=O)NCc2nn(CC(=O)NN=Cc3ccc(Cl)cc3)c(=S)o2)c(S)n1 [Compound 10, 4,6-Dimethyl-N-{[4-(2-(2-(4-chlorobenzylidene)hydrazinyl)-2-oxoethyl)-5-sulfanylidene-4,5-dihydro-1,3,4-oxadiazole-2-yl]methyl}-2-sulfanylpyridine-3-carboxamide]	130 ± 9.5
3.72 ± 0.54	Cc1ccc(C=NNC(=O)Cn2nc(CNC(=O)c3c(C)cc(C)nc3S)oc2=S)cc1 [Compound 7, 4,6-Dimethyl-N-{[4-(2-(2-(4-methylbenzylidene)hydrazinyl)-2-oxoethyl)-5-sulfanylidene-4,5-dihydro-1,3,4-oxadiazole-2-yl]methyl}-2-sulfanylpyridine-3-carboxamide]	68.3 ± 3.24
3.88 ± 0.5	Cc1cc(C)c(C(=O)NCc2nn(CC(=O)NN=Cc3cccc(Cl)c3)c(=S)o2)c(S)n1 [Compound 12, 4,6-Dimethyl-N-{[4-(2-(2-(3-chlorobenzylidene)hydrazinyl)-2-oxoethyl)-5-sulfanylidene-4,5-dihydro-1,3,4-oxadiazole-2-yl]methyl}-2-sulfanylpyridine-3-carboxamide]	79.2 ± 14.4
3.16 ± 0.21	Cc1cc(C)c(C(=O)NCc2nn(CC(=O)NN=Cc3ccccc3Br)c(=S)o2)c(S)n1 [Compound 13, 4,6-Dimethyl-N-{[4-(2-(2-(2-bromobenzylidene)hydrazinyl)-2-oxoethyl)-5-sulfanylidene-4,5-dihydro-1,3,4-oxadiazole-2-yl]methyl}-2-sulfanylpyridine-3-carboxamide]	55.7 ± 1.84

Second part, the molecule before the results:

SMILES	IC50 [2] [µM]	IC50 [1] [µM]
Cc1cc(C)c(C(=O)NCc2nn(CC(=O)NN=Cc3ccc(C(F)(F)F)cc3)c(=S)o2)c(S)n1 [Compound 11, 4,6-Dimethyl-N-{[4-(2-(2-(4-trifluoromethylbenzylidene)hydrazinyl)-2-oxoethyl)-5-sulfanylidene-4,5-dihydro-1,3,4-oxadiazole-2-yl]methyl}-2-sulfanylpyridine-3-carboxamide]	3.72 ± 0.24	104 ± 4.98
Cc1cc(C)c(C(=O)NCc2nn(CC(=O)NN)c(=S)o2)c(S)n1 [Compound 4, N-{[4-(2-hydrazinyl-2-oxoethyl)-5-sulfanylidene-4,5-dihydro-1,3,4-oxadiazol-2-yl]methyl}-4,6-dimethyl-2-sulfanylpyridine-3-carboxamide]	3.84 ± 0.3	77.4 ± 5.84
Cc1cc(C)c(C(=O)NCc2nn(CC(=O)NN=Cc3ccccc3)c(=S)o2)c(S)n1 [Compound 5, 4,6-Dimethyl-N-{[4-(2-(2-benzylidenehydrazinyl)-2-oxoethyl)-5-sulfanylidene-4,5-dihydro-1,3,4-oxadiazol-2-yl]methyl}-2-sulfanylpyridine-3-carboxamide]	3.62 ± 0.43	100 ± 13.5
Cc1cc(C)c(C(=O)NCc2nn(CC(=O)NN=Cc3ccc(C#N)cc3)c(=S)o2)c(S)n1 [Compound 9, 4,6-Dimethyl-N-{[4-(2-(2-(4-cyanobenzylidene)hydrazinyl)-2-oxoethyl)-5-sulfanylidene-4,5-dihydro-1,3,4-oxadiazole-2-yl]methyl}-2-sulfanylpyridine-3-carboxamide]	3.36 ± 0.2	89.8 ± 8.43
CSc1ccc(/C=N\NC(=O)Cn2nc(CNC(=O)c3c(C)cc(C)nc3S)oc2=S)cc1 [Compound 8, 4,6-Dimethyl-N-{[4-(2-(2-(4-methysulfanylbenzylidene)hydrazinyl)-2-oxoethyl)-5-sulfanylidene-4,5-dihydro-1,3,4-oxadiazole-2-yl]methyl}-2-sulfanylpyridine-3-carboxamide]	4.34 ± 0.56	50.4 ± 2.45
Cc1cc(C)c(C(=O)NCc2nn(CC(=O)NN=Cc3ccc(F)cc3)c(=S)o2)c(S)n1 [Compound 6, 4,6-Dimethyl-N-{[4-(2-(2-(4-fluorobenzylidene)hydrazinyl)-2-oxoethyl)-5-sulfanylidene-4,5-dihydro-1,3,4-oxadiazole-2-yl]methyl}-2-sulfanylpyridine-3-carboxamide]	4.05 ± 0.26	59.6 ± 5.42
